pIC50: −log10 of the molar value.
Key:
THP-1 = experiment: Cytotoxicity in human THP-1 cells assessed as reduction in cell viability incubated for 72 hrs by MTT assay; assay type: cell-based; details: THP-1, 72 h
[1] = target: NACHT, LRR and PYD domains-containing protein 3 (Homo sapiens, UniProt Q96P20); experiment: Inhibition of NLRP3 in PMA-stimulated human THP-1 cells assessed as reduction in IL-1beta release pre-treated for 24 hrs followed by stimulation with LPS for 3 hrs and ATP for 1 hr by ELISA analysis; assay type: cell-based
NACHT, LRR and PYD domains-containing protein 3, sequence (Q96P20 whole entry, the tested form may be a part): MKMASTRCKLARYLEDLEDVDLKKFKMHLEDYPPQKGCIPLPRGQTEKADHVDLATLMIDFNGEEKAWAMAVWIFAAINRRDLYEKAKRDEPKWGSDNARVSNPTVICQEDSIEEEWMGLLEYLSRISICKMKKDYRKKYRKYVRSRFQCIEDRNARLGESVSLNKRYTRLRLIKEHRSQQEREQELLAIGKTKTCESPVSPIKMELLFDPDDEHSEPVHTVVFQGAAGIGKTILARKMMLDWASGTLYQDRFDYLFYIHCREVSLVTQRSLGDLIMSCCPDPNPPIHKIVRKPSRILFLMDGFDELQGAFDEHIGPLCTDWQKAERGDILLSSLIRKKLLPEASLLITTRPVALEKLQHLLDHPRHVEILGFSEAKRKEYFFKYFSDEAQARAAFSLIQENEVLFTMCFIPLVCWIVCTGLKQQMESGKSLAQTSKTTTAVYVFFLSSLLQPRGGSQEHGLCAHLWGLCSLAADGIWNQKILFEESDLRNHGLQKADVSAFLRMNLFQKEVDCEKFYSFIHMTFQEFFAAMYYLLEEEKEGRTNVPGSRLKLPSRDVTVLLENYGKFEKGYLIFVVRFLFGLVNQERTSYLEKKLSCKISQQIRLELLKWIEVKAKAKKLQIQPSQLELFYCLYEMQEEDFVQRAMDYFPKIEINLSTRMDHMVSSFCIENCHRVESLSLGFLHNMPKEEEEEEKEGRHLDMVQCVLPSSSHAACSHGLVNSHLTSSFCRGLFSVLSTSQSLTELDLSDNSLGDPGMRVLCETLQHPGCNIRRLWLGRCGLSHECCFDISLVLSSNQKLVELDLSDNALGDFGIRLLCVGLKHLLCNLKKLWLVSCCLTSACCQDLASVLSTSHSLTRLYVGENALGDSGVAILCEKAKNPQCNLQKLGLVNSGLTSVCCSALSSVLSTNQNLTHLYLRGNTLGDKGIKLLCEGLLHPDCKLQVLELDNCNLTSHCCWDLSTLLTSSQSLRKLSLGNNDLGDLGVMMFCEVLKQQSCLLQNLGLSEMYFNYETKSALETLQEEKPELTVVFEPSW

SMILES	pIC50 (THP-1)	pIC50 [1]
CS(=O)(=O)N1CCCc2ccc(N(S(=O)(=O)c3cccc(F)c3)S(=O)(=O)c3cccc(F)c3)cc21	4.14	
CC(C)(O)c1coc(S(=O)(=O)NC(=O)Nc2c3c(cc4c2CCC4)CCC3)c1	4.01	
CS(=O)(=O)N1CCCc2ccc(N(S(=O)(=O)c3ccc(F)cc3)S(=O)(=O)c3ccc(F)cc3)cc21	< 4.00	
CC(=O)Nc1ccc(S(=O)(=O)N(c2ccc3c(c2)N(S(C)(=O)=O)CCC3)S(=O)(=O)c2ccc(NC(C)=O)cc2)cc1	< 4.00	
CS(=O)(=O)N1CCCc2ccc(N(S(=O)(=O)Cc3ccccc3)S(=O)(=O)Cc3ccccc3)cc21	< 4.00	
CCCS(=O)(=O)N(c1ccc2c(c1)N(S(C)(=O)=O)CCC2)S(=O)(=O)CCC	4.01	
CS(=O)(=O)N1CCCc2ccc(N(S(=O)(=O)c3ccc(C(F)(F)F)cc3)S(=O)(=O)c3ccc(C(F)(F)F)cc3)cc21	5.08	
CS(=O)(=O)N1CCCc2ccc(N(S(=O)(=O)c3cccnc3)S(=O)(=O)c3cccnc3)cc21	4.15	
CCCCS(=O)(=O)N(c1ccc2c(c1)N(S(C)(=O)=O)CCC2)S(=O)(=O)CCCC	4.02	
CS(=O)(=O)N1CCCc2ccc(N(S(=O)(=O)c3ccc(Cl)cc3)S(=O)(=O)c3ccc(Cl)cc3)cc21	< 4.00	
COc1ccc(S(=O)(=O)N(c2ccc3c(c2)N(S(C)(=O)=O)CCC3)S(=O)(=O)c2ccc(OC)cc2)cc1	4.04	
CS(=O)(=O)N1CCCc2ccc(N(S(=O)(=O)c3ccc4ccccc4c3)S(=O)(=O)c3ccc4ccccc4c3)cc21	4.01	
CS(=O)(=O)N1CCCc2ccc(N(S(=O)(=O)c3cccs3)S(=O)(=O)c3cccs3)cc21	< 4.00	
CS(=O)(=O)N1CCCc2ccc(N(S(=O)(=O)c3ccc(Br)cc3)S(=O)(=O)c3ccc(Br)cc3)cc21	4.18	
CS(=O)(=O)N1CCCc2ccc(N(S(C)(=O)=O)S(C)(=O)=O)cc21	< 4.00	
COC(=O)c1ccc(S(=O)(=O)N(c2ccc3c(c2)N(S(C)(=O)=O)CCC3)S(=O)(=O)c2ccc(C(=O)OC)cc2)cc1	< 4.00	
CS(=O)(=O)N1CCCc2ccc(N(S(=O)(=O)c3ccccc3F)S(=O)(=O)c3ccccc3F)cc21	< 4.00	
Cc1ccc(S(=O)(=O)N(c2ccc3c(c2)N(S(C)(=O)=O)CCC3)S(=O)(=O)c2ccc(C)cc2)cc1	4.11	
CS(=O)(=O)N1CCCc2ccc(N(S(=O)(=O)c3ccc(-c4ccccc4)cc3)S(=O)(=O)c3ccc(-c4ccccc4)cc3)cc21	< 4.00	
CS(=O)(=O)N1CCCc2ccc(N(S(=O)(=O)c3ccccc3[N+](=O)[O-])S(=O)(=O)c3ccccc3[N+](=O)[O-])cc21	< 4.00	4.86
CS(=O)(=O)N1CCCc2ccc(N(S(=O)(=O)c3ccc(C#N)cc3)S(=O)(=O)c3ccc(C#N)cc3)cc21	4.44	
CS(=O)(=O)N1CCCc2ccc(N(S(=O)(=O)c3ccc([N+](=O)[O-])cc3)S(=O)(=O)c3ccc([N+](=O)[O-])cc3)cc21	4.19	
CCS(=O)(=O)N(c1ccc2c(c1)N(S(C)(=O)=O)CCC2)S(=O)(=O)CC	< 4.00	
CS(=O)(=O)N1CCCc2ccc(N(S(=O)(=O)c3ccccc3)S(=O)(=O)c3ccccc3)cc21	< 4.00	
CS(=O)(=O)N1CCCc2ccc(N(S(=O)(=O)c3cccc4ccccc34)S(=O)(=O)c3cccc4ccccc34)cc21	< 4.00	
CS(=O)(=O)N1CCCc2ccc(N(S(=O)(=O)CCN3C(=O)c4ccccc4C3=O)S(=O)(=O)CCN3C(=O)c4ccccc4C3=O)cc21	< 4.00	
CS(=O)(=O)N1CCCc2ccc(N(S(=O)(=O)c3cc(C(F)(F)F)cc(C(F)(F)F)c3)S(=O)(=O)c3cc(C(F)(F)F)cc(C(F)(F)F)c3)cc21	4.46	
